# Reference: patent publication US20250339447A1, “19-NOR C3,3-DISUBSTITUTED C21-N-PYRAZOLYL STEROID AND METHODS OF USE THEREOF” (Sage Therapeutics, Inc., priority 2018, published 2025)
# Assays:
# subjects with MDD [1] = experiment: Phase 2 study in subjects with MDD (dose justification); format: in vivo, human; conditions: 30 mg per day
# Excerpt: (§1) Dose adjustments to 20-mg of Compound 1 were permitted; 20-mg of Compound 1 was anticipated to be well tolerated as it was lower than the maximum tolerated dose level.
# [2] = Previous clinical trials, morning versus evening administration; format: in vivo, human
# Excerpt: as §1
# subjects with MDD [3] = experiment: HAM-D course to Day 42 after a Compound 1 treatment cycle (source study not given); format: in vivo, human
# Excerpt: Because of this, most subjects were eligible (i.e., PHQ-9 ≥10 and HAM-D ≥20 confirmed over 2 weeks) for a Compound 1 treatment cycle when needed; a 2-week period was required to establish a new MDE (DSM-5).
# [4] = test system: synaptic and extrasynaptic GABAA receptors; experiment: Modulation of GABAA receptors; conditions: stated in background
# [5] = test system: adult patients diagnosed with MDD (MADRS total score ≥32 and HAM-D total score ≥22); experiment: Double-blind, randomized placebo-controlled Phase 3 study in Major Depressive Disorder (Example 5); format: in vivo, human; conditions: for overall incidence of patients who experienced AEs: 14-day treatment period and 28-day follow up, placebo 48.9%; for Fatigue incidence: placebo 2.6%; for Sedation incidence / treatment emergent AEs leading to study drug discontinuation: placebo 3.2%; for Dizziness incidence: placebo 3.7%; for Somnolence incidence: placebo 4.2%; for Nausea incidence: placebo 4.7%; for Diarrhea incidence: placebo 5.3%; for Headache incidence: treatment and 28-day follow up, placebo 7.4%
# Procedure: Compound 1 was evaluated in a double-blind, randomized placebo-controlled Phase 3 study in Major Depressive Disorder (MDD). The evaluated the efficacy, safety and pharmacokinetics of Compound 1 in adult patients diagnosed with MDD (MADRS total score ≥32 and a HAM-D total score ≥22).
# Compound 1 was administered to a patient, either in 20 mg daily doses once a day for 14 days or 30 mg once a day for 14 days.
# Post-hoc analyses were conducted to evaluate the effects of performance factors of Compound 1 in the primary analysis, in patients with measurable drug concentrations, in patients with HAM-D≥24, and in patients with measurable drug concentrations and HAM-D≥24, and including the primary outcome at Day 15 (FIG. 11).
# [6] = test system: female subjects diagnosed with severe postpartum depression; experiment: Placebo-controlled study of Compound 1 capsules in severe postpartum depression (Example 1); format: in vivo, human
# Procedure: Compound 1 was investigated for use in subjects with depression. Female subjects (18-65 years old) diagnosed with severe postpartum depression (PDD) with a HAM-D total score of greater than or equal to 26 at screening and Day 1 were used in the investigation. The subjects were dosed once per day with capsules containing 30 mg of Compound 1. The dose could be adjusted to capsules containing 20 mg of Compound 1 if the 30 mg dose was not tolerated. Subjects not dosed with Compound 1 were dosed with a placebo. In total, 78 subjects were treated with Compound 1 at 30 mg and 73 subjects were treated with placebo.
# Assuming a 2-sided test at an alpha level of 0.05, a sample size of approximately 65 evaluable subjects per treatment group provided 90% power to detect a placebo-adjusted treatment difference of approximately 4 points in the primary endpoint, change from baseline in HAM-D total score at Day 15 assuming standard deviation (SD) of 7 points. The change from baseline in the HAM-D total score was analyzed using a mixed effects model for repeated measures (MMRM). The model included the change from baseline at each visit as the dependent variable. The main comparison was (difference in least mean square [LSMEAN]) between Compound 1 Capsules and placebo at the 15-day timepoint.
# For Model-based point estimates (i.e., LSMEAN, 95% confidence intervals, and p-values), an unstructured covariance structure was used to model the within-subject errors. If there was a convergence issue with the unstructured covariance model, Toeplitz, compound symmetry or Autoregressive (1) (AR[1]) covariance structure was used, following this sequence until convergence was achieved. […] When the covariance structure was not UN, the sandwich estimator for the variance-covariance matrix was derived, using the EMPIRICAL option in the PROC MIXED statement in SAS.
# Similarly, an MMRM was used for the analysis of the following variables: changes from baseline in MADRS total score and HAM-A total score, and select individual item and subscale scores. For each model, the comparison of interest was between Compound 1 Capsules and matching placebo at the 15-day time point. Model-based point estimates (i.e., LS means), 95% confidence intervals, and p-values were reported.
# [7] = Day 42, among subjects achieving remission or response at Day 15
compound,measurement,setting,value
C[C@@]1(O)CC[C@H]2[C@H](CC[C@@H]3[C@@H]2CC[C@]2(C)[C@@H](C(=O)Cn4cc(C#N)cn4)CC[C@@H]32)C1 [Compound 1],efficacy and tolerability of the dose level,subjects with MDD [1],efficacious and well-tolerated
same,adverse effect observed,[2]; administered in the morning,sedation/somnolence
same,tolerability,[2]; given in the evening,improved tolerability
same,subjects achieving remission or response,subjects with MDD [3]; Day 15,78.6%
same,subjects with HAM-D score of 16 to 21,subjects with MDD [3]; [7],18.2%
same,subjects with HAM-D ≥22,subjects with MDD [3]; [7],6.1%
same,mode of action at GABAA receptors,[4],positive allosteric modulator
same,tolerability in the trial,[5]; 20 mg and 30 mg,generally well tolerated
same,separation from placebo,[5]; 20 mg once a day for 14 days,did not separate from placebo
same,overall incidence of patients who experienced AEs,[5]; 20 mg,50.0%
same,patients reporting SAEs during follow-up,"[5]; 20 mg, complications of cocaine ingestion, Day 39",one
same,Fatigue incidence,[5]; 20 mg,1.6%
same,Sedation incidence,[5]; 20 mg,5.9%
same,treatment emergent AEs leading to study drug discontinuation,[5]; 20 mg,1.6%
same,Dizziness incidence,[5]; 20 mg,7.4%
same,Somnolence incidence,[5]; 20 mg,5.9%
same,Nausea incidence,[5]; 20 mg,5.3%
same,Diarrhea incidence,[5]; 20 mg,5.9%
same,Headache incidence,[5]; 20 mg,11.2%
same,"HAM-D total score, LS Mean Difference from placebo","[5]; 30 mg (n=166) vs placebo (n=157), Day 3, p=0.016",−1.6
same,reduction in depressive symptoms in the HAM-D total score,"[5]; 30 mg once a day for 14 days, Day 15 (primary endpoint), placebo 11.2",12.6
same,"HAM-D total score, LS Mean Difference, post-hoc","[5]; 30 mg vs placebo, Day 15, patients with HAM-D≥24, p=0.032",−2.3
same,"HAM-D total score, LS Mean Difference from placebo","[5]; 30 mg, Day 8, p=0.008",−2.1
same,"HAM-D total score, LS Mean Difference from placebo","[5]; 30 mg, Day 12, p=0.018",−2.1
same,"HAM-D total score, LS Mean Difference from placebo","[5]; 30 mg, Day 15, p=0.115",−1.4
same,"change from baseline in HAM-D total score, post-hoc","[5]; 30 mg, Day 15, patients with HAM-D≥24 (n=124), placebo −11.4",−13.7
same,"change from baseline in HAM-D total score, post-hoc","[5]; 30 mg, Day 15, patients with measurable drug concentrations (n=151), placebo −11.2",−13.0
same,"change from baseline in HAM-D total score, post-hoc","[5]; 30 mg, Day 15, patients with measurable drug concentrations and HAM-D≥24 (n=115), placebo −11.4",−14.0
same,"HAM-D total score, LS Mean Difference from placebo","[5]; 30 mg, Day 42, p=0.807",−0.5
same,change from baseline in HAM-D total score,"[5]; 30 mg, Day 42, placebo −11.7",−11.9
same,overall incidence of patients who experienced AEs,[5]; 30 mg,54.2%
same,Fatigue incidence,[5]; 30 mg,6.8%
same,Sedation incidence,[5]; 30 mg,4.7%
same,treatment emergent AEs leading to study drug discontinuation,[5]; 30 mg,2.1%
same,Dizziness incidence,[5]; 30 mg,5.7%
same,Somnolence incidence,[5]; 30 mg,6.8%
same,Nausea incidence,[5]; 30 mg,3.6%
same,Diarrhea incidence,[5]; 30 mg,6.3%
same,patients with serious adverse events (SAEs) during treatment,"[5]; 30 mg, suicide attempt Day 5, bile duct stone after Day 2",Two
same,patients reporting SAEs during follow-up,"[5]; 30 mg, syncope and associated injuries, Day 28",one
same,Headache incidence,[5]; 30 mg,6.3%
same,AEs of loss of consciousness,[5]; all groups,no AEs of loss of consciousness
same,suicidal ideation or behavior by Columbia Suicide Severity Rating Scale (C-SSRS),[5]; compared to baseline,no signal for increased suicidal ideation or suicidal behavior
same,depressive symptoms in long-term follow-up,"[5]; patients who completed long-term follow-up up to 6 months, preliminary data",maintenance of improvement in depressive symptoms
same,overall efficacy conclusion,"[6]; 30 mg once a day for 15 days, compared to placebo",effective at treating postpartum depression
same,mean decrease from baseline in HAM-D total score,"[6]; 30 mg once daily, Day 15, mean baseline 28.4 (2.09), placebo −13.6 (8.31)",−18.0 (8.36)
same,model-based between treatment group difference in HAM-D total score change (95% CI),"[6]; 30 mg vs placebo, Day 15, MMRM, p 0.0029","−4.2 (−6.9, −1.5)"
same,model-based between treatment group difference in HAM-A total score change (95% CI),"[6]; 30 mg vs placebo, Day 15, p 0.0063","−3.90 (−6.7, −1.1)"
same,model-based between treatment group difference in MADRS total score change (95% CI),"[6]; 30 mg vs placebo, Day 15, p=0.0182","−4.6 (−8.3, −0.8)"
same,"CGI-I response, model-based odds ratio (95% CI)","[6]; 30 mg vs placebo, Day 15, p=0.0280","2.15 (1.09, 4.27)"
same,"HAM-D response, model-based odds ratio (95% CI)","[6]; 30 mg vs placebo, p=0.0050","2.63 (1.34, 5.16)"
same,"HAM-D remission, model-based odds ratio (95% CI)","[6]; 30 mg vs placebo, p=0.0122","2.50 (1.22, 5.11)"
same,CGI-I response rate,"[6]; 30 mg, Day 15, 53/74 subjects, placebo 38/73 (52.1%)",71.6%
same,mean decrease from baseline in MADRS total score,"[6]; 30 mg, Day 15, baseline 34.9 (4.41), placebo −17.7 (11.72)",−22.0 (11.64)
same,mean decrease from baseline in HAM-A total score,"[6]; 30 mg, Day 15, mean baseline 26.1 (5.88), placebo −12.9 (8.57)",−16.5 (9.51)
same,HAM-D remission rate,"[6]; 30 mg, 33/74 subjects, placebo 17/73 (23.3%)",44.6%
same,HAM-D response rate,"[6]; 30 mg, 53/74 subjects, placebo 35/73 (47.9%)",71.6%
